Where “and” joins values, the source holds several entries; their conditions need not be identical. Equal entries are not always repeated. Where two headings read alike, the source gives them in different places.
Tests used:
CHIKV (S27 strain) = CHIKV (S27 strain) CPE assay; type: cell-based, Chikungunya virus
in vitro = conditions: African green monkey
VEEV (TC83 strain) = experiment: microbe, parasite or virus in culture; type: cell-based, Venezuelan equine encephalitis virus
[1] = tested on: VEEV TrD (Trinidad donkey); type: cell-based, Venezuelan equine encephalitis virus
LCMV-ARM = type: cell-based, Lymphocytic Choriomeningitis Virus
Influenza virus A (H1N1) = type: cell-based
CHIKV S27 = type: cell-based, Chikungunya virus; conditions: 5 μM
YFV 17D = type: cell-based, Yellow Fever virus
[2] = tested on: host gene expression in HEp-2 cells; experiment: DNA microarray host gene expression; type: cell-based, Human; conditions: 5 μM, 18 hours
pVSV-luc = experiment: microbe, parasite or virus in culture; type: cell-based, Vesicular stomatitis virus
VEEV V3526-luc = experiment: microbe, parasite or virus in culture; type: cell-based, Venezuelan equine encephalitis virus; conditions: Venezuelan equine encephalitis virus
[3] = Chikungunya virus, read-out: CHIKV EC50
[4] = Venezuelan equine encephalitis virus, read-out: VEEV EC50
[5] = Tables 7-10, read-out: CHIKV (S27 strain) CPE Assay Potency mean EC50
[6] = read-out: VEEV (TC83 strain) CPE Assay Potency mean EC50

## CCOc1ccccc1C1CCN(c2nc3c(s2)CCCC3)C1=O (stereo not drawn)
CHIKV (S27 strain); [3]
  EC50: > 50 µM
In vitro; CC50
  CC50: > 50 µM
VEEV (TC83 strain); [4]
  EC50: 4.5 µM

## CCOc1ccccc1NC(=O)N(c1ccccc1)c1nc2c(s1)CCCC2
CHIKV (S27 strain); [3]
  EC50: 12.2 µM
In vitro; CC50
  CC50: > 50 µM
VEEV (TC83 strain); [4]
  EC50: 10 µM

## O=C(Cc1cccs1)Nc1nc2c(s1)CCCC2 [A]
[1]
  Log titer reduction at 5 μM: 1.765 log
LCMV-ARM
  Log titer reduction at 5 μM: 0.085 log
Influenza virus A (H1N1)
  Log titer reduction at 5 μM: 4.949 log
CHIKV S27
  Log titer reduction at 5 μM: 0.61 log and 0.612 log

## CN(C(=O)Cc1sccc1F)c1nc2c(s1)CCCC2 [B]
[1]
  Log titer reduction at 5 μM: 4.768 log
LCMV-ARM
  Log titer reduction at 5 μM: 3.466 log
Influenza virus A (H1N1)
  Log titer reduction at 5 μM: 4.949 log
YFV 17D
  Log titer reduction at 5 μM: 2.32 log
CHIKV S27
  Log titer reduction at 5 μM: 4.024 log

## O=C(Cc1cccs1)N(c1ccccc1)c1nc2c(s1)CCCC2 [CB10002623]
[2]
  GBP2 expression upregulation: 3.5
  IFI44 expression upregulation: 2.83
  IFIT1 expression upregulation: 2.3
  IRF9 expression upregulation: 2.4
  ISG20 expression upregulation: 2.85
  OASL expression fold increase: 3.76 fold
  expression of IFN-ε: decreased in half
[2]; vs DMSO
  RIG-I expression fold increase: 4.63 fold

## Cc1csc(CC(=O)N(C)c2nc3c(s2)CCCC3)c1 [C]
[1]
  Log titer reduction at 5 μM: 3.741 log
LCMV-ARM
  Log titer reduction at 5 μM: 3.014 log
Influenza virus A (H1N1)
  Log titer reduction at 5 μM: 3.075 log
YFV 17D
  Log titer reduction at 5 μM: 2.588 log
CHIKV S27
  Log titer reduction at 5 μM: 3.62 log

## COc1ccccc1CC(=O)N(C)c1nc2c(s1)CCCC2 [D]
[1]
  Log titer reduction at 5 μM: 2.716 log
CHIKV S27
  Log titer reduction at 5 μM: 2.182 log

## CCOc1ccccc1CC(=O)N(C)c1nc2c(s1)CCCC2 [E]
[1]
  Log titer reduction at 5 μM: 3.411 log
CHIKV S27
  Log titer reduction at 5 μM: 3.161 log

## O=C(Cc1cccs1)Nc1nc2c(s1)CCCC2 [Entry 1]
CHIKV (S27 strain); [5]
  EC50: 4.9 µM
Vero 76 cells
  CC50: > 50 µM
VEEV (TC83 strain); [6]
  EC50: 5.1 µM

## CCOc1ccc(CC(=O)N(C)c2nc3c(s2)CCCC3)cc1 [Entry 8]
CHIKV (S27 strain); [5]
  EC50: > 50 µM
Vero 76 cells
  CC50: > 50 µM
VEEV (TC83 strain); [6]
  EC50: > 50 µM

## COCc1ccccc1CC(=O)N(C)c1nc2c(s1)CCCC2 [Entry 9]
CHIKV (S27 strain); [5]
  EC50: 9.3 µM
Vero 76 cells
  CC50: > 50 µM
VEEV (TC83 strain); [6]
  EC50: 9.1 µM

## Cc1ccccc1CC(=O)N(C)c1nc2c(s1)CCCC2 [Entry 10]
CHIKV (S27 strain); [5]
  EC50: 3.6 µM
Vero 76 cells
  CC50: > 50 µM
VEEV (TC83 strain); [6]
  EC50: 1 µM

## Cc1cccc(CC(=O)N(C)c2nc3c(s2)CCCC3)c1 [Entry 11]
CHIKV (S27 strain); [5]
  EC50: 2.8 µM
Vero 76 cells
  CC50: > 50 µM
VEEV (TC83 strain); [6]
  EC50: 1.3 µM

## Cc1ccc(CC(=O)N(C)c2nc3c(s2)CCCC3)cc1 [Entry 12]
CHIKV (S27 strain); [5]
  EC50: 4.1 µM
Vero 76 cells
  CC50: > 50 µM
VEEV (TC83 strain); [6]
  EC50: 0.9 µM

## Cc1ccc(C)c(CC(=O)N(C)c2nc3c(s2)CCCC3)c1 [Entry 13]
CHIKV (S27 strain); [5]
  EC50: 8.9 µM
Vero 76 cells
  CC50: > 50 µM
VEEV (TC83 strain); [6]
  EC50: 11.7 µM

## CCOc1ccccc1CC(=O)N(c1nc2c(s1)CCCC2)C(C)C [Entry 14]
CHIKV (S27 strain); [5]
  EC50: > 50 µM
Vero 76 cells
  CC50: > 50 µM
VEEV (TC83 strain); [6]
  EC50: 15.9 µM

## CCOc1ccccc1CC(=O)N(c1nc2c(s1)CCCC2)C1CCOCC1 [Entry 15]
CHIKV (S27 strain); [5]
  EC50: > 50 µM
Vero 76 cells
  CC50: > 50 µM
VEEV (TC83 strain); [6]
  EC50: 12.5 µM

## CCOc1ccccc1CC(=O)N(CCOC)c1nc2c(s1)CCCC2 [Entry 16]
CHIKV (S27 strain); [5]
  EC50: 10.9 µM
Vero 76 cells
  CC50: > 50 µM
VEEV (TC83 strain); [6]
  EC50: 10.9 µM

## COc1ccccc1CC(=O)N(c1ccccc1)c1nc2c(s1)CCCC2 [Entry 17]
CHIKV (S27 strain); [5]
  EC50: 0.5 µM
Vero 76 cells
  CC50: > 50 µM
VEEV (TC83 strain); [6]
  EC50: 0.7 µM

## O=C(Cc1ccccc1C(F)(F)F)N(c1ccccc1)c1nc2c(s1)CCCC2 [Entry 19]
CHIKV (S27 strain); [5]
  EC50: 1.2 µM
Vero 76 cells
  CC50: > 50 µM
VEEV (TC83 strain); [6]
  EC50: 1.2 µM

## CCOc1ccccc1CC(=O)N(c1nc2c(s1)CCCC2)c1ccccc1OC [Entry 20]
CHIKV (S27 strain); [5]
  EC50: > 50 µM
Vero 76 cells
  CC50: > 50 µM
VEEV (TC83 strain); [6]
  EC50: > 50 µM

## CCOc1ccccc1CC(=O)N(c1cccc(OC)c1)c1nc2c(s1)CCCC2 [Entry 21]
CHIKV (S27 strain); [5]
  EC50: 4.1 µM
Vero 76 cells
  CC50: > 50 µM
VEEV (TC83 strain); [6]
  EC50: 1.7 µM

## CCOc1ccccc1CC(=O)N(c1ccc(OC)cc1)c1nc2c(s1)CCCC2 [Entry 22]
CHIKV (S27 strain); [5]
  EC50: > 50 µM
Vero 76 cells
  CC50: > 50 µM
VEEV (TC83 strain); [6]
  EC50: 4.6 µM

## CCOc1ccccc1CC(=O)N(c1nccs1)c1nc2c(s1)CCCC2 [Entry 23]
CHIKV (S27 strain); [5]
  EC50: > 50 µM
Vero 76 cells
  CC50: > 50 µM
VEEV (TC83 strain); [6]
  EC50: > 50 µM

## CCOc1ccccc1CC(=O)N(c1cccnc1)c1nc2c(s1)CCCC2 [Entry 24]
CHIKV (S27 strain); [5]
  EC50: 10.6 µM
VEEV (TC83 strain); [6]
  EC50: 2.5 µM

## O=C(Cc1ccccn1)N(c1ccccc1)c1nc2c(s1)CCCC2 [Entry 25]
CHIKV (S27 strain); [5]
  EC50: > 50 µM
Vero 76 cells
  CC50: 33.2 µM
VEEV (TC83 strain); [6]
  EC50: > 50 µM

## O=C(Cc1ccco1)N(c1ccccc1)c1nc2c(s1)CCCC2 [Entry 26]
CHIKV (S27 strain); [5]
  EC50: 8.2 µM
Vero 76 cells
  CC50: 25.8 µM
VEEV (TC83 strain); [6]
  EC50: 6.8 µM

## O=C(Cc1ccc(Br)s1)N(c1ccccc1)c1nc2c(s1)CCCC2 [Entry 27]
CHIKV (S27 strain); [5]
  EC50: 0.05 µM
Vero 76 cells
  CC50: 17.2 µM
VEEV (TC83 strain); [6]
  EC50: 0.02 µM

## O=C(Cc1sccc1Br)N(c1ccccc1)c1nc2c(s1)CCCC2 [Entry 28]
CHIKV (S27 strain); [5]
  EC50: 0.05 µM
Vero 76 cells
  CC50: 22.4 µM
VEEV (TC83 strain); [6]
  EC50: 0.02 µM

## Cc1ccc(CC(=O)N(c2ccccc2)c2nc3c(s2)CCCC3)s1 [Entry 29]
CHIKV (S27 strain); [5]
  EC50: 0.11 µM
Vero 76 cells
  CC50: 7.8 µM
VEEV (TC83 strain); [6]
  EC50: 0.03 µM

## Cc1csc(CC(=O)N(C)c2nc3c(s2)CCCC3)c1 [Entry 30]
CHIKV (S27 strain); [5]
  EC50: 0.09 µM
Vero 76 cells
  CC50: 36.4 µM
VEEV (TC83 strain); [6]
  EC50: 0.02 µM

## COc1csc(CC(=O)N(C)c2nc3c(s2)CCCC3)c1 [Entry 31]
CHIKV (S27 strain); [5]
  EC50: 0.14 µM
Vero 76 cells
  CC50: 36.1 µM
VEEV (TC83 strain); [6]
  EC50: 0.05 µM

## CN(C(=O)Cc1cc(F)cs1)c1nc2c(s1)CCCC2 [Entry 32]
CHIKV (S27 strain); [5]
  EC50: 10.2 µM
Vero 76 cells
  CC50: 22.5 µM
VEEV (TC83 strain); [6]
  EC50: 5.1 µM

## CN(C(=O)Cc1sccc1F)c1nc2c(s1)CCCC2 [Entry 33]
CHIKV (S27 strain); Chikungunya virus, Tables 7-10, read-out: CHIKV (S27 strain) CPE Assay Potency mean EC50
  EC50: 0.3 µM
In vitro; VERO Cell Cytotoxicity Assay mean CC50
  CC50: 41.4 µM
VEEV (TC83 strain); Venezuelan equine encephalitis virus, read-out: VEEV (TC83 strain) CPE Assay Potency mean EC50
  EC50: 0.4 µM

## CN(C(=O)Cc1sccc1C(F)(F)F)c1nc2c(s1)CCCC2 [Entry 34]
CHIKV (S27 strain); [5]
  EC50: > 50 µM
Vero 76 cells
  CC50: 6.4 µM

## CN(C(=O)Cc1ccc(C(F)(F)F)s1)c1nc2c(s1)CCCC2 [Entry 35]
CHIKV (S27 strain); [5]
  EC50: > 50 µM
Vero 76 cells
  CC50: > 50 µM
VEEV (TC83 strain); [6]
  EC50: > 50 µM

## COc1ccccc1CC(=O)N(c1ccccc1)c1nc2c(s1)CCCC2 [F]
[1]
  Log titer reduction at 5 μM: 3.198 log
CHIKV S27
  Log titer reduction at 5 μM: 2.495 log

## O=C(Cc1sccc1Br)N(c1ccccc1)c1nc2c(s1)CCCC2 [G]
[1]
  Log titer reduction at 5 μM: 4.754 log
CHIKV S27
  Log titer reduction at 5 μM: 5.179 log

## CC[C@@]1([C@@H]2O[C@@H]([C@H]3O[C@@](O)(CO)[C@H](C)C[C@@H]3C)C[C@@H]2C)CC[C@H]([C@]2(C)CC[C@]3(C[C@H](O)[C@@H](C)[C@@H]([C@@H](C)[C@@H](OC)[C@H](C)C(=O)O)O3)O2)O1 [Monensin, monensin, reference compound]
pVSV-luc; Vesicular stomatitis virus, N2a, read-out: EC50 pVSV-Gp
  EC50: 0.22 µM
pVSV-luc; Vesicular stomatitis virus, read-out: EC50 values range
  EC50: 0.17 to 0.56 µM
pVSV-luc; read-out: EC50 pVSV-Gp
  EC50: 0.19 µM
VEEV V3526-luc; N2a, read-out: EC50 V3526-luc
  EC50: 0.25 µM
VEEV V3526-luc; NIH3T3, read-out: EC50 V3526-luc
  EC50: 0.02 µM
VEEV V3526-luc; Vero 76, read-out: EC50 V3526-luc
  EC50: 3.87 µM
VEEV V3526-luc; read-out: EC50 V3526-luc
  EC50: 0.02 µM
VEEV V3526-luc; read-out: EC50 values range
  EC50: 0.02 to 0.25 µM
